US9499529B2 (California State University Fresno, priority 2013, dated 2016)

What was measured:
[1] = system: HeLa cervical cancer cells; experiment: HeLa cell viability after treatment with analog (cell count, cell viability analyzer); assay type: cell-based, human; settings: for viability at 1 µM / viability at 10 µM: Homo sapiens, HeLa, 72 h, read-out: HeLa Cell viability after treatment with analog (% viability)
Procedure: Cell numbers were counted with a cell viability analyzer (Beckman-Coulter). The ratio of drug treated viable cell numbers to control vehicle (DMSO) treated viable cell numbers was defined as percentage viability. […] Compound nos.
The HeLa cells used in the experiments summarized by Table 5 were cultured in RPMI-1640 medium supplemented with 10% FBS, 4 mM glutamine, 1 mM sodium pyruvate, 100 IU/mL penicillin, 100 ug/mL streptomycin and 0.25 ug/mL amphotericin. The HeLa cells were plated in 24-well plates at a density of 20,000 cells in each well in 10% FBS RPMI-1640. […] Cell numbers were counted with a cell viability analyzer (Beckman-Coulter). […]

[2] = system: PC-3 prostate cancer cells; experiment: In vitro cytotoxicity against PC-3 prostate cancer cells; assay type: cell-based, human; settings: PC-3 cells; for IC50: five days
Procedure: (§1) The half maximal inhibitory concentration (IC50) is a measure of the effectiveness of a substance in inhibiting a specific biological or biochemical function. It is commonly used as a measure of antagonist drug potency.
Cell cultures were maintained in 5% carbon dioxide at a temperature of 37° C. […] Cell numbers were counted with a cell viability analyzer (Beckman-Coulter). […] A preliminary dose response curve was prepared from the collected data by means well known to those of ordinary skill in the art.
(§2) The six different concentrations fell within a selected linear concentration range determined by reference to the preliminary dose response curve and efforts to estimate the concentration at which 50% of the cell growth would be inhibited. The selected six different concentrations were used to further fill out the dose response curve to pinpoint a more exact IC50 value.

[3] = system: DU-145 prostate cancer cells; experiment: In vitro cytotoxicity against DU-145 prostate cancer cells; assay type: cell-based, human; settings: DU-145 cells; for IC50: five days
Procedure: as §1
Cell numbers were counted with a cell viability analyzer (Beckman-Coulter).
(§3) A preliminary dose response curve was prepared from the collected data by means well known to those of ordinary skill in the art.
as §2

[4] = system: HeLa cervical cancer cells; experiment: In vitro cytotoxicity against HeLa cervical cancer cells; assay type: cell-based, human; settings: for IC50: three days
Procedure: as §1
(§4) Cell numbers were counted with a cell viability analyzer (Beckman-Coulter). The ratio of drug treated viable cell numbers to vehicle treated viable cell numbers was defined as percentage viability.
as §3, §2

[5] = system: MCF-10A normal mammary epithelial cells; experiment: Cytotoxicity towards non-cancerous MCF-10A cells (FIG. 9); assay type: cell-based; settings: for cytotoxicity towards MCF-10A normal mammary epithelial cells (in words): 0.1 μM, and 0.01 μM
Procedure: The MCF-10A normal mammary epithelial cells were cultured in RPMI-1640 medium supplemented with 10% FBS, 4 mM glutamine, 1 mM sodium pyruvate, 100 IU/mL penicillin, 100 ug/mL streptomycin and 0.25 ug/mL amphotericin. The MCF-10A cells were plated in 24-well plates at a density of 20,000 each well in 10% FBS RPMI-1640 or DMED medium. […] Cell numbers were counted with a cell viability analyzer (Beckman-Coulter).

[6] = system: MDA-MB-231 breast cancer cells; experiment: In vitro cytotoxicity toward MDA-MB-231 cells; assay type: cell-based; settings: Homo sapiens, 120 h, five days, read-out: IC50 (analog)
Source text: as §4

[7] = system: A549 non-small cell lung cancer cells; experiment: In vitro cytotoxicity toward A549 cells; assay type: cell-based; settings: Homo sapiens, 120 h, between three and five days, read-out: IC50 (analog)
Source text: as §4

[8] = system: PC-3 prostate cancer cell line; settings: cited from earlier work
[9] = 1 μM, three days, relative to DMSO vehicle
[10] = 10 μM, three days, relative to DMSO vehicle

Row | Structure (SMILES) | HeLa Cell viability after treatment with analog (% viability) [1, 9] [%] | HeLa Cell viability after treatment with analog (% viability) [1, 10] [%] | IC50 [2] [nM] | IC50 [3] [nM] | IC50 (curcumin)/IC50 (analog) [4] | IC50 [4] [nM] | also measured
1 | CN1CC(=Cc2cscn2)C(=O)C(=Cc2cscn2)C1 [Compound 6] | 72.0 | 12.0 | 800 | 430 | 13 | 817 | IC50 (curcumin)/IC50 (analog) [2]: 2.5; IC50 (curcumin)/IC50 (analog) [3]: 0.7
2 | Cc1cc(/C=C2\CCC/C(=C\c3cc(C)on3)C2=O)no1 [Compound 8, (2E,6E)-2,6-Bis((5-methylisoxazol-3-yl)methylene)cyclohexanone] |  |  | 140 | 34 |  | 205 | HeLa Cell viability after treatment with analog (% viability) ([1]; 10 µM): 12.8%
3 | Cc1cc(/C=C2\CCC/C(=C\c3cc(C)on3)C2=O)no1 [Compound 18, (2E,6E)-2,6-Bis((5-methylisoxazol-3-yl)methylene)cyclohexanone] |  |  | 71 | 70 | 19 | 552 | viability at 1 µM [1]: 32%; viability at 10 µM [1]: 15.9%
4 | CC(C)n1ccnc1/C=C/C(=O)/C=C/c1nccn1C(C)C [Compound 20] | 35 | 11.4 | 89 | 54 | 25 | 418 | 
5 | CCC(C)n1ccnc1/C=C/C(=O)/C=C/c1nccn1C(C)CC (stereo not drawn) [Compound 21] | 81.8 | 17.7 | 63 | 35 | 16 | 654 | survival of MCF-10A cells ([5]; 0.01 μM, five days, FIG. 9): 100%; survival of MCF-10A cells ([5]; 0.1 μM, five days, FIG. 9): about 90%; cytotoxicity towards MCF-10A normal mammary epithelial cells (in words) ([5]; 1 μM, FIG. 9): no apparent cytotoxicity; survival of MCF-10A cells ([5]; 1 μM, five days, FIG. 9): about 80%
6 | CC(C)Cn1ccnc1/C=C/C(=O)/C=C/c1nccn1CC(C)C [Compound 22] | 34.1 | 23.1 | 46 | 57 | 24 | 430 | survival of MCF-10A cells ([5]; 0.01 μM, five days, FIG. 9): 100%; survival of MCF-10A cells ([5]; 0.1 μM, five days, FIG. 9): about 85%; cytotoxicity towards MCF-10A normal mammary epithelial cells (in words) ([5]; 1 μM, FIG. 9): no apparent cytotoxicity; survival of MCF-10A cells ([5]; 1 μM, five days, FIG. 9): about 85%
7 | Cc1cc(/C=C/C(=O)/C=C/c2cc(C)on2)no1 [Compound 27] | 48 | 15.9 | 250 | 42 |  | 296 | IC50 (curcumin)/IC50 (analog) [2]: 7.9
8 | Cc1cc(/C=C/C(=O)/C=C/c2cc(C)no2)on1 [Compound 28, (1E,4E)-1,5-Bis(3-methylisoxazol-5-yl)penta-1,4-dien-3-one] |  |  | 41 | 16 |  | 226 | viability at 1 µM [1]: 28%; IC50 [6]: 156 nM; IC50 [7]: 160 nM; survival of MCF-10A cells ([5]; 0.01 μM, five days, FIG. 9): about 90%; survival of MCF-10A cells ([5]; 0.1 μM, five days, FIG. 9): about 90%; survival of MCF-10A cells ([5]; 1 μM, five days, FIG. 9): about 85%; melting point: 167 to 169 °C
9 | COc1cc(/C=C/C(=O)/C=C/c2ccc(O)c(OC)c2)ccc1O [FLLL11] |  |  |  |  |  |  | potency towards PC-3 prostate cancer cell line relative to curcumin [8]: more potent than curcumin
10 | COc1cc(/C=C/C(=O)/C=C/c2cc(OC)c(O)c(OC)c2)cc(OC)c1O [FLLL12] |  |  |  |  |  |  | potency towards PC-3 prostate cancer cell line relative to curcumin [8]: more potent than curcumin
11 | COc1cc(/C=C/C(=O)CC(=O)/C=C/c2ccc(O)c(OC)c2)ccc1O [curcumin, reference compound] |  |  |  |  |  |  | viability at 1 µM [1]: 100%; viability at 10 µM [1]: 42.5%; IC50 ([2]; Homo sapiens, PC-3, 120 h): 1980 nM; IC50 ([3]; Homo sapiens, DU-145, 120 h): 300 nM; IC50 ([4]; Homo sapiens, HeLa, 72 h): 10500 nM; IC50 [6]: 880 nM; IC50 [7]: 15000 nM; survival of MCF-10A cells ([5]; human, 5 days, 0.01 µM): 100%; survival of MCF-10A cells ([5]; human, 5 days, 0.1 µM): about 95%; survival of MCF-10A cells ([5]; human, 5 days, 1 µM): about 95%
